Experimental data as given in PubChem BioAssay AID248 (DTP/NCI, 2004).
Values joined by “and” are separate entries in the source; they are usually repeats but may differ in a detail not shown here. Equal entries are not always repeated. Inconclusive results and toxic doses are left out. No stated cut-off is given here; in the data, active means T/C of 150% or more; inactive means T/C below 125%.

System: L1210 leukemia ip in BDF1 mice, survival T/C
Assay: NCI In Vivo Anticancer Drug Screen. Data for tumor model L1210 Leukemia (intraperitoneal) in B6D2F1 (BDF1) mice
Conditions: endpoint: mean survival time, higher = longer survival
Procedure, shortened: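 Survival endpoint. Drug-treated group vs vehicle group, expressed as T divided by C. Tumor passaged by transplantation.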

[1] = dose: 100.0 mg/kg/injection, schedule: Q04DX003 (ip), vehicle: Klucel (hydroxypropylcellulose) (HPC)
[2] = dose: 200.0 mg/kg/injection, schedule: Q04DX003 (ip), vehicle: Klucel (hydroxypropylcellulose) (HPC)
[3] = dose: 400.0 mg/kg/injection, schedule: Q04DX003 (ip), vehicle: Klucel (hydroxypropylcellulose) (HPC)
[4] = dose: 100.0 mg/kg/injection, schedule: Q01DX001 (ip), vehicle: saline
[5] = dose: 100.0 mg/kg/injection, schedule: Q01DX009 (ip), vehicle: saline
[6] = dose: 100.0 mg/kg/injection, schedule: Q04DX002 (ip), vehicle: saline
[7] = dose: 200.0 mg/kg/injection, schedule: Q04DX002 (ip), vehicle: saline
[8] = dose: 200.0 mg/kg/injection, schedule: Q01DX001 (ip), vehicle: saline
[9] = dose: 400.0 mg/kg/injection, schedule: Q01DX001 (ip), vehicle: saline
[10] = dose: 100.0 mg/kg/injection, schedule: Q04DX003 (ip), vehicle: saline with Tween-80
[11] = dose: 200.0 mg/kg/injection, schedule: Q04DX003 (ip), vehicle: saline with Tween-80
[12] = dose: 400.0 mg/kg/injection, schedule: Q04DX003 (ip), vehicle: saline with Tween-80
[13] = dose: 100.0 mg/kg/injection, schedule: Q01DX009 (ip), vehicle: Klucel (hydroxypropylcellulose) (HPC)
[14] = dose: 200.0 mg/kg/injection, schedule: Q01DX009 (ip), vehicle: Klucel (hydroxypropylcellulose) (HPC)
[15] = dose: 400.0 mg/kg/injection, schedule: Q01DX009 (ip), vehicle: Klucel (hydroxypropylcellulose) (HPC)

Measured: T/C

CCC1(C)N=C(N)N=C(N)N1c1ccc(Cl)c(Cl)c1 (stereo not given)
inactive: dose: 37.5 mg/kg/injection, schedule: Q04DX003 (ip), vehicle: saline 111 % of control | dose: 75.0 mg/kg/injection, schedule: Q01DX001 (ip), vehicle: saline 103 % of control | dose: 75.0 mg/kg/injection, schedule: Q04DX003 (ip), vehicle: saline 111 % of control | dose: 150.0 mg/kg/injection, schedule: Q01DX001 (ip), vehicle: saline 101 % of control | dose: 150.0 mg/kg/injection, schedule: Q04DX003 (ip), vehicle: saline 105 % of control

CC12CCC(c3cn(C(=O)c4cccnc4)nc31)C2(C)C (stereo not given)
inactive: [1] 92 % of control | [2] 97 % of control | [3] 95 % of control

CCC(NCC(C)C)NCC(C)C
inactive: dose: 12.5 mg/kg/injection, schedule: Q04DX003 (ip), vehicle: saline 91 % of control | dose: 25.0 mg/kg/injection, schedule: Q04DX003 (ip), vehicle: saline 105 % of control | dose: 50.0 mg/kg/injection, schedule: Q04DX003 (ip), vehicle: saline 86 % of control

O=C(O)c1ccc(N/N=C/C(F)(F)F)cc1
inactive: dose: 25.0 mg/kg/injection, schedule: Q01DX009 (ip), vehicle: saline 95 % of control and 98 % of control | dose: 50.0 mg/kg/injection, schedule: Q01DX001 (ip), vehicle: saline 110 % of control | dose: 50.0 mg/kg/injection, schedule: Q01DX009 (ip), vehicle: saline 93 % of control and 106 % of control | [4] 96 % of control | [5] 95 % of control and 87 % of control | [6] 106 % of control and 109 % of control | [7] 96 % of control

C/C(=N\NC(=O)C1CCCO1)c1cccc2ccccc12 (stereo not given)
inactive: dose: 12.5 mg/kg/injection, schedule: Q01DX009 (ip), vehicle: Klucel (hydroxypropylcellulose) (HPC) 97 % of control | dose: 25.0 mg/kg/injection, schedule: Q01DX009 (ip), vehicle: Klucel (hydroxypropylcellulose) (HPC) 114 % of control

O=c1[nH]c(-c2ccccc2)ncc1OCc1ccccc1
inactive: dose: 50.0 mg/kg/injection, schedule: Q01DX001 (ip), vehicle: carboxymethylcellulose (CMC) 91 % of control | dose: 100.0 mg/kg/injection, schedule: Q01DX001 (ip), vehicle: carboxymethylcellulose (CMC) 100 % of control | dose: 200.0 mg/kg/injection, schedule: Q01DX001 (ip), vehicle: carboxymethylcellulose (CMC) 96 % of control | dose: 400.0 mg/kg/injection, schedule: Q01DX001 (ip), vehicle: carboxymethylcellulose (CMC) 89 % of control

CCCNC(c1ccc(C=NC(CC)(CO)CO)cc1)C(Cl)(Cl)Cl (stereo not given)
inactive: [4] 89 % of control | [8] 92 % of control | [9] 97 % of control

Cc1cc2c(cc1C)C(=O)CCC2
inactive: dose: 100.0 mg/kg/injection, schedule: Q01DX001 (ip), vehicle: saline with Tween-80 97 % of control | dose: 100.0 mg/kg/injection, schedule: Q01DX009 (ip), vehicle: saline with Tween-80 109 % of control | dose: 100.0 mg/kg/injection, schedule: Q04DX002 (ip), vehicle: saline with Tween-80 88 % of control | [10] 97 % of control | dose: 200.0 mg/kg/injection, schedule: Q01DX001 (ip), vehicle: saline with Tween-80 97 % of control | dose: 200.0 mg/kg/injection, schedule: Q01DX009 (ip), vehicle: saline with Tween-80 109 % of control | dose: 200.0 mg/kg/injection, schedule: Q04DX002 (ip), vehicle: saline with Tween-80 90 % of control | [11] 98 % of control | dose: 400.0 mg/kg/injection, schedule: Q01DX001 (ip), vehicle: saline with Tween-80 91 % of control | dose: 400.0 mg/kg/injection, schedule: Q01DX009 (ip), vehicle: saline with Tween-80 115 % of control | dose: 400.0 mg/kg/injection, schedule: Q04DX002 (ip), vehicle: saline with Tween-80 90 % of control | [12] 95 % of control

COC1OC2COC(c3ccccc3)OC2C(O)C1OC (stereo not given)
inactive: dose: 12.5 mg/kg/injection, schedule: Q04DX002 (ip), vehicle: saline 100 % of control | dose: 25.0 mg/kg/injection, schedule: Q04DX002 (ip), vehicle: saline 100 % of control | dose: 50.0 mg/kg/injection, schedule: Q04DX002 (ip), vehicle: saline 116 % of control

CCCCCCCCN(CCCCCCCC)CC(O)c1ccc2cc(Br)c3ccccc3c2c1 (stereo not given)
inactive: dose: 100.0 mg/kg/injection, schedule: Q04DX003 (ip), vehicle: acetone 113 % of control | dose: 200.0 mg/kg/injection, schedule: Q04DX003 (ip), vehicle: acetone 120 % of control | dose: 400.0 mg/kg/injection, schedule: Q04DX003 (ip), vehicle: acetone 103 % of control

CC(N)C(=O)Nc1ccc(C(=O)O)c(O)c1 (stereo not given)
inactive: [5] 109 % of control | dose: 200.0 mg/kg/injection, schedule: Q01DX009 (ip), vehicle: saline 102 % of control | dose: 400.0 mg/kg/injection, schedule: Q01DX009 (ip), vehicle: saline 106 % of control

CN=C(N)c1ccc(S(=O)(=O)N=C(N)N)cc1
inactive: [4] 96 % of control | [8] 98 % of control | [9] 100 % of control

CCN(CC)C(=O)OCCN1C(=O)C2C3CCC(O3)C2C1=O (stereo not given)
inactive: [1] 93 % of control | [2] 92 % of control | [3] 93 % of control

O=C1OC2CCCCC2OC1=O (stereo not given)
inactive: [4] 101 % of control | [8] 101 % of control

CCCCCCCCC1SC1CCCCCCCC(=O)N(C)c1ccccc1 (stereo not given)
inactive: dose: 100.0 mg/kg/injection, schedule: Q04DX003 (ip), vehicle: saline 97 % of control | dose: 200.0 mg/kg/injection, schedule: Q04DX003 (ip), vehicle: saline 99 % of control | dose: 400.0 mg/kg/injection, schedule: Q04DX003 (ip), vehicle: saline 94 % of control

CCCCCc1cc2c3c(c(=O)oc2cc1O)CCCCC3
inactive: dose: 100.0 mg/kg/injection, schedule: Q04DX003 (ip), vehicle: gum acacia 90 % of control | dose: 200.0 mg/kg/injection, schedule: Q04DX003 (ip), vehicle: gum acacia 88 % of control | dose: 400.0 mg/kg/injection, schedule: Q04DX003 (ip), vehicle: gum acacia 96 % of control

CCCCNC(=O)NC(=O)CS(=O)(=O)c1ccc(C)cc1
inactive: [10] 95 % of control | [11] 95 % of control | [12] 93 % of control

C1CCC(NC2=NCCO2)CC1
inactive: dose: 12.5 mg/kg/injection, schedule: Q04DX002 (ip), vehicle: saline with Tween-80 101 % of control | dose: 25.0 mg/kg/injection, schedule: Q04DX002 (ip), vehicle: saline with Tween-80 93 % of control | dose: 50.0 mg/kg/injection, schedule: Q04DX002 (ip), vehicle: saline with Tween-80 90 % of control

Cc1cccc(Cl)c1NC(=S)Nc1cccc(C(F)(F)F)c1
inactive: [13] 102 % of control | [14] 102 % of control | [15] 96 % of control

Cc1cc(OC(=O)Nc2cc([N+](=O)[O-])ccc2F)cc(C)c1Cl
inactive: [1] 89 % of control | [2] 91 % of control | [3] 93 % of control

Cc1ccccc1N=Nc1c(O)n(-c2ccccc2C)c(=S)n(-c2ccccc2)c1=O
inactive: dose: 75.0 mg/kg/injection, schedule: Q01DX003 (ip), vehicle: Klucel (hydroxypropylcellulose) (HPC) 88 % of control | dose: 150.0 mg/kg/injection, schedule: Q01DX003 (ip), vehicle: Klucel (hydroxypropylcellulose) (HPC) 104 % of control | dose: 300.0 mg/kg/injection, schedule: Q01DX003 (ip), vehicle: Klucel (hydroxypropylcellulose) (HPC) 86 % of control

CC(C)(C)NC(=O)CCC1C(NC(=O)C(C)(C)C)C2(Cl)C(Cl)=C(Cl)C1(Cl)C2(Cl)Cl (stereo not given)
inactive: [13] 90 % of control | [1] 92 % of control | [14] 90 % of control | [2] 92 % of control | [15] 90 % of control | [3] 93 % of control

CS/C(=C\C(=O)c1ccccc1)C(=O)O
inactive: [6] 110 % of control | [7] 100 % of control | dose: 400.0 mg/kg/injection, schedule: Q04DX002 (ip), vehicle: saline 100 % of control

CC1=CC(=O)NP(=O)(Oc2ccc3ccccc3c2)N1 (stereo not given)
inactive: dose: 50.0 mg/kg/injection, schedule: Q01DX005 (ip), vehicle: other 95 % of control | dose: 100.0 mg/kg/injection, schedule: Q01DX005 (ip), vehicle: other 96 % of control | dose: 200.0 mg/kg/injection, schedule: Q01DX005 (ip), vehicle: other 95 % of control | dose: 400.0 mg/kg/injection, schedule: Q01DX005 (ip), vehicle: other 92 % of control
